Columns and labels:
[1] = Wash test in liquid detergent: odour intensity and quality on line-dried fabric, assessed by expert panel; conditions: for Fragrance score after 1 day / Fragrance score after 3 days: line-dried cotton/elastane fabric, panel of 4-6 experts, scale 0 (odourless) to 5 (extremely strong); for Odour intensity on dried fabric over time (FIG. 1): 0.2% by weight in liquid detergent, 40° C. wash, fresh dried, after 24 hours and after four days, scale 0 to 5
Experimental: A Nitrone precursor (Sample A: (E)-2-methyl-N-(4-methylbenzyl)undecan-1-imine oxide, compound of Example 1) has been compared to the aldehyde (Sample B: 2-methyl undecanal) in a wash test. • 1) Sample preparation: 0.2% by weight of the precursor or the aldehyde have been incorporated into unperfumed liquid detergent base by magnetic stirring at room temperature for 24 h., • 2) Wash test: A 40° C. machine wash cycle was performed using 55 g of the liquid detergent sample containing the test material and odour-neutral cotton/elastan mixed fabric T-shirts. […]
Further compounds of formula (I) have been tested in liquid detergent. • 1) Sample preparation: 0.2% wt/wt of the test material was incorporated in unperfumed liquid detergent base by magnetic stirring at room temperature for 24 h. • 2) Wash test: a 40° C. machine wash cycle was performed using 55 g of the liquid detergent sample containing the test material and odour-neutral cotton/elastane mixed fabric T-shirts. The wet fabric is line-dried and odour intensity and quality are assessed by a panel of 4-6 experts after 1 and 3 days on an intensity scale of 0 (odourless) to 5 (extremely strong).

[2] = Biodegradability by manometric respirometry test (OECD guideline No. 301F); conditions: OECD 301F manometric respirometry; oxygen consumption of theory
Text: The results of the biodegradability assessment by the manometric respirometry test (OECD guideline for the testing of materials No. 301F, Paris 1992) are summarized in Table 2.
A compound can be classified biodegradable, if it reaches the pass level of 60% oxygen consumption of theory required for complete mineralization.
It is readily biodegradable, if the pass level is reached within 10 days within the 28-day period of the test. The 10-day window begins when the degree of biodegradation has reached 10%.
If the pass level is obtained after 28-day period of the test, the compound can be classified as inherently biodegradable.

[3] = Stability test in liquid detergent base by quantitative HPLC with UV detection; format: physicochemical
Experimental: Example 61: Stability test in liquid detergentThe stability of (E)-N-isopropyl-2-methylundecan-1-imine oxide (compound of Example 9) in a liquid detergent base was assessed by quantitative HPLC with UV detection.
A liquid detergent sample as prepared above containing the test substance was sampled at TO and after 30 days storage at 37° C. (300 mg diluted with 10 mL acetonitrile/high purity water 1:1), and the concentration of the precursor was assessed by quantitative HPLC-UV using an external calibration curve.

[4] = Application in shampoo: odour intensity and quality on dry hair swatches, assessed by expert panel; conditions: 0.2% wt/wt in shampoo
Experimental: • 1) Sample preparation: 0.2% wt/wt of (E)-N-isopropyl-2-methylundecan-1-imine oxide (compound of example 9) was incorporated in unperfumed shampoo base by magnetic stirring at room temperature for 24 h. • 2) Wash test: Hair swatches were wetted with warm tap water, then 2 mL of the above prepared shampoo sample was applied to the hair swatches lathering with gloves delicately for 30 seconds. The hair swatches were rinsed with cold tap water for 20 seconds and excess water was removed by squeezing the hair swatches between two fingers. The hair swatches were left to dry in open air. Their odour intensity and quality was assessed by a panel of 4-6 experts after 1 and 2 days on an intensity scale of 0 (odourless) to 5 (extremely strong). • 3) Results: After 1 day, the fragrance score was 3.2, after 2 days, the fragrance score was 3.3.

[5] = 0.2% wt/wt in liquid detergent, 40° C. machine wash

Compound	Fragrance score after 1 day [1, 5]	Fragrance score after 3 days [1, 5]	Biodegradation in % [2] [%]	also measured
CC1=C(/C=C/C(C)=[N+](/[O-])C(C)C)C(C)(C)CCC1 [Example 10, (2E,3E)-N-isopropyl-4-(2,6,6-trimethylcyclohex-1-en-1-yl)but-3-en-2-imine oxide]	2.3	2.2		Odour on dry fabric ([1]; 0.2% wt/wt in liquid detergent, 40° C. machine wash, line-dried fabric, odour quality by panel): ionone
CCCCCCCCCC(C)/C=[N+](/[O-])C1CCCCC1 (stereo not shown) [Example 6, (E)-N-cyclohexyl-2-methylundecan-1-imine oxide]			74	
CCCCCCCCCC(C)/C=[N+](/[O-])CC(C)CCC (stereo not shown) [Example 15, (E)-2-methyl-N-(2-methylpentyl)undecan-1-imine oxide]			75	
CCCCCCCCCC(C)C=O (stereo not shown) [Sample B, 2-methyl undecanal, reference compound]				Odour intensity on dried fabric over time (FIG. 1) [1]: relatively high on the freshly dried sample and decreases with time
CCCCCCCCCC(C)/C=[N+](/[O-])Cc1ccc(C)cc1 (stereo not shown) [Example 1, (E)-2-methyl-N-(4-methylbenzyl)undecan-1-imine oxide]			83	Odour intensity on dried fabric over time (FIG. 1) [1]: increases with time and is the highest after four days
CCCCCCCCC/C=C/C=[N+](\[O-])Cc1ccccc1 [Example 49, (1Z,2E)-N-benzyldodec-2-en-1-imine oxide]	2.9	3.0		
CCCCCCCCCC(C)/C=[N+](/[O-])Cc1ccc(OC)cc1 (stereo not shown) [Example 58, (E)-N-(4-methoxybenzyl)-2-methylundecan-1-imine oxide]			76	
CCCCCCCCCC(C)/C=[N+](\C)[O-] (stereo not shown) [Example 13, (E)-N,2-dimethylundecan-1-imine oxide]			89	
CCCCCCCCCC(C)/C=[N+](/[O-])C(C)C (stereo not shown) [Example 9, (E)-N-isopropyl-2-methylundecan-1-imine oxide]	2.4	3.2	70	Stability in liquid detergent (judgement) ([3]; 30 days storage at 37° C., alkaline liquid detergent): stable; Concentration of the precursor in liquid detergent, initial ([3]; liquid detergent base, T0, HPLC-UV): 0.21 weight %; Concentration of the precursor in liquid detergent after storage ([3]; liquid detergent base, after 30 days storage at 37° C., HPLC-UV): 0.18 weight %; Perceived odour on dry hair [4]: clean, aldehydic; Fragrance score after 1 day ([4]; panel of 4-6 experts, scale 0 (odourless) to 5 (extremely strong), after 1 day): 3.2; Fragrance score after 2 days ([4]; panel of 4-6 experts, scale 0 (odourless) to 5 (extremely strong), after 2 days): 3.3
CCCCCCCCCC(C)/C=[N+](/[O-])Cc1ccccc1 (stereo not shown) [Example 5, (E)-N-benzyl-2-methylundecan-1-imine oxide]			87	
